Measured values reported in patent US9012635B2, “Pyridone amides and analogs exhibiting anti-cancer and anti-proliferative activities” (Deciphera Pharmaceuticals, LLC, priority 2013, dated 2015).
Structures can show the parent of a compound that is named as a salt.

Key:
[1] = biological target: T1, Phospho-MET in MKN-45 cells (Homo sapiens, UniProt P08581); test: MKN-45 phospho-MET ELISA; assay type: cell-based; conditions: 6 h compound, 40 ng/mL HGF 10 min, read-out: MKN-45 pMET
T1 construct: endogenous in cells; host or cells: MKN-45 (JCRB0254)
T1 sequence (P08581 25-1390): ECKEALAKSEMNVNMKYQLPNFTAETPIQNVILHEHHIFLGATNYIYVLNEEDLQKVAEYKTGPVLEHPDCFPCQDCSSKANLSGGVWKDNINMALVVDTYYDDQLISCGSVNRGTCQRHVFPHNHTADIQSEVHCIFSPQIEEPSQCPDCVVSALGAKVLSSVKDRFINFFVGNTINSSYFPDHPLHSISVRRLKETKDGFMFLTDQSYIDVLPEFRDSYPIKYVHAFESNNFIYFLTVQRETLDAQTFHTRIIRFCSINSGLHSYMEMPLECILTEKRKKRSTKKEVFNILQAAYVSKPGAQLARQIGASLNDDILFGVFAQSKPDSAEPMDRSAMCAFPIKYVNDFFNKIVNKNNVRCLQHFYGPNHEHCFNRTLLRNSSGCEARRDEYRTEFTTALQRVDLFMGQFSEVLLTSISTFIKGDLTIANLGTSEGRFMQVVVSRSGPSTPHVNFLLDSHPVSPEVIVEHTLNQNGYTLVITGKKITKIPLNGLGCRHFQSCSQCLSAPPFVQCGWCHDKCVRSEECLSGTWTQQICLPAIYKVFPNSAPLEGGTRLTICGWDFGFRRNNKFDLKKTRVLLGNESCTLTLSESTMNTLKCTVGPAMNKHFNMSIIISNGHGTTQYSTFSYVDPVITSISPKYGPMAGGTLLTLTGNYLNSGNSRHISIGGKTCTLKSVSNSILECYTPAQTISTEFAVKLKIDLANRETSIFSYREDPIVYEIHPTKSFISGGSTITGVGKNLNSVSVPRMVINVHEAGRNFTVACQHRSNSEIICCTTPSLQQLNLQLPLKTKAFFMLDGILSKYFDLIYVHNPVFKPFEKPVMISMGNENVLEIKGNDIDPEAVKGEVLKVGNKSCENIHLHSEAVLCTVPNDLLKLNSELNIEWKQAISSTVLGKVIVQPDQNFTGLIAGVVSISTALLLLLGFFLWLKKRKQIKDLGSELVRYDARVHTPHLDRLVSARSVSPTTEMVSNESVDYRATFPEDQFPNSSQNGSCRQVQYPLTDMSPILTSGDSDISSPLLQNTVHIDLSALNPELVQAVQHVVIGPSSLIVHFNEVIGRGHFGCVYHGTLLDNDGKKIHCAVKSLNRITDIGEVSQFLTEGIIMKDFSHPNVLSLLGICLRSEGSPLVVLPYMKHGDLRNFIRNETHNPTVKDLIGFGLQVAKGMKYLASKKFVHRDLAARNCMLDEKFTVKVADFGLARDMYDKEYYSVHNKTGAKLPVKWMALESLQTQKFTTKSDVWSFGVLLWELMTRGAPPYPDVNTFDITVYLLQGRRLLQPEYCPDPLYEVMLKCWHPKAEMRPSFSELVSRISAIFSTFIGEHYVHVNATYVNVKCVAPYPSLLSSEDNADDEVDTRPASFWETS
Description: MKN-45 cells (catalog #JCRB0254) were obtained from the Japan Health Science Research Resources Bank, Osaka, Japan. Briefly, cells were grown in RPMI 1640 media supplemented with 10% characterized fetal bovine serum (Invitrogen, Carlsbad, Calif.) at 37° C., 5% CO2, 95% humidity. Cells were allowed to expand until reaching 70-95% confluency at which point they were subcultured or harvested for assay use.
Twenty-five thousand cells in RPMI-1640 supplemented with 10% characterized fetal bovine serum (Invitrogen, Carlsbad, Calif.) were added per well in a 96-well black clear bottom plate (Corning, Corning, N.Y.). Cells were then incubated overnight at 37 degrees Celsius, 5% CO2, 95% humidity. Media was then aspirated and cells were washed with PBS. A serial dilution of test compound was dispensed into another 96-well black clear bottom plate (Corning, Corning, N.Y.) containing serum-free RPMI-1640. Compound was added to plates containing cells and incubated for 6 hours at 37 degrees Celsius, 5% CO2, 95% humidity. Cells were stimulated with 40 ng/mL HGF (R&D Systems, Minneapolis, Minn.) for 10 minutes, and then lysed. Phospho-MET in cell lysates was detected using the DuoSet IC Human Phospho-HGF R/c-MET ELISA (R&D Systems, Minneapolis, Minn.). Data was analyzed using Prism software (Graphpad, San Diego, Calif.) to calculate IC50 values.

[2] = biological target: KDR kinase (Seq ID No. 3) (Homo sapiens, UniProt P35968, DEL940-989/E990V); test: KDR kinase assay (assays K1, K2, K3); assay type: biochemical; conditions: enzymatic assay; variant K1, K2 or K3 not given
KDR kinase (Seq ID No. 3), sequence (P35968 with tags, fused parts or gaps DEL940-989/E990V): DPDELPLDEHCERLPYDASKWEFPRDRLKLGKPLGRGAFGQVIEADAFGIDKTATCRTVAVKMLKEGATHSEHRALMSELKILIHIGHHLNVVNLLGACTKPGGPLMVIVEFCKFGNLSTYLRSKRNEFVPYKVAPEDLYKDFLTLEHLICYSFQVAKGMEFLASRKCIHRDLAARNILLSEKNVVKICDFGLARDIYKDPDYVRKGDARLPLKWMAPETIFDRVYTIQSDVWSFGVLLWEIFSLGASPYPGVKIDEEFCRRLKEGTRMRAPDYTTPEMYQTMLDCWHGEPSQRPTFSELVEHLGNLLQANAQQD
Description: The activity of KDR kinase was determined by following the production of ADP from the kinase reaction through coupling with the pyruvate kinase/lactate dehydrogenase system (e.g., Schindler et al. Science 2000, 289, pp. 1938-1942). In this assay, the oxidation of NADH (thus the decrease at A340 nm) was continuously monitored spectrophotometrically. The reaction mixture (100 μl) contained KDR (Seq ID No. 3, 1.5 nM to 7.1 nM, nominal concentration), polyE4Y (1 mg/mL), pyruvate kinase (3.5 units), lactate dehydrogenase (5.5 units), phosphoenolpyruvate (1 mM), and NADH (0.28 mM) in 60 mM Tris buffer containing 0.13% octyl-glucoside, 13 mM MgCl2, 6.8 mM DTT, test compound, and 3.5% DMSO at pH 7.5. The reaction was initiated by adding ATP (0.2 mM, final concentration). The absorption at 340 nm was continuously monitored for 3 h at 30° C. on a Polarstar Optima plate reader (BMG) or instrument of similar capacity. The reaction rate was calculated using the 1 h to 2 h time frame. Percent inhibition was obtained by comparison of reaction rate with that of a control (i.e., with no test compound). IC50 values were calculated from a series of percent inhibition values determined at a range of inhibitor concentrations using software routines as implemented in the GraphPad Prism software package.
KDR kinase assay K2 is the same as for assay K1 except that (1) a nominal concentration of 2.1 nM of enzyme was employed (2) the reaction was pre-incubated with test compound at 30° C. for 2 h prior to initiation with ATP and (3) 1.0 mM ATP (final concentration) was used to initiate the reaction.
KDR kinase assay K3 is the same as for assay K1 except that (1) a nominal concentration of 1.1 nM of enzyme was employed, (2) the buffer components per 100 μl reaction mixture were as follows: 75 mM Tris buffer containing 0.066% octyl-glucoside, 17 mM MgCl2, and 1% DMSO at pH 7.5, (3) the final concentration of DTT was 0.66 mM, (4) the reaction was pre-incubated with test compound at 30° C. for 1 h prior to initiation with ATP, and (5) 1.0 mM ATP (final concentration) was used to initiate the reaction.

[3] = biological target: T2, FMS kinase (Homo sapiens, UniProt P07333); test: FMS kinase assay (pyruvate kinase/lactate dehydrogenase coupled, A340); assay type: biochemical; conditions: enzymatic assay, ATP 500 μM
T2 construct: purchased Millipore
T2 sequence (P07333 538-972): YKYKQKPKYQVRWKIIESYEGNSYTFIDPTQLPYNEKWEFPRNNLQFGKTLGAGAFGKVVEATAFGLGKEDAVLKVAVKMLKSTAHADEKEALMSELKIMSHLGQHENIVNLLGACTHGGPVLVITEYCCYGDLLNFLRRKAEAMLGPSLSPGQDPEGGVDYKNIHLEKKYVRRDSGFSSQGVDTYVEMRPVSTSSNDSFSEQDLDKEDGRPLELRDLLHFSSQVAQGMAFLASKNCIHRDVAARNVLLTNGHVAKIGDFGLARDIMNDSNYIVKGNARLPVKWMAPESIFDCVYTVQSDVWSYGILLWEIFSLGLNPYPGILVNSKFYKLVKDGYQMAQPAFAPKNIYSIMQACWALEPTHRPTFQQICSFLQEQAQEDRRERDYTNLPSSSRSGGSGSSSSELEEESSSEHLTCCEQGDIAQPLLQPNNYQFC
Description: Activity of FMS kinase was determined by following the production of ADP from the FMS kinase reaction with ATP and poly E4Y as substrates through coupling with the pyruvate kinase/lactate dehydrogenase system (e.g., Schindler et al. Science (2000) 289: 1938-1942). In this assay, the oxidation of NADH (thus the decrease at A340 nm) was continuously monitored spectrophometrically. The reaction mixture (100 μl) contained FMS (purchased from Millipore) (10 nM), polyE4Y (1 mg/mL), MgCl2 (10 mM), pyruvate kinase (4 units), lactate dehydrogenase (0.7 units), phosphoenol pyruvate (1 mM), and NADH (0.28 mM) and ATP (500 μM) in 90 mM Tris buffer containing 0.2% octyl-glucoside and 1% DMSO, pH 7.5. Immediately, the inhibition reaction was started by mixing serial diluted test compound with the above reaction mixture. The absorption at 340 nm was monitored continuously for 4 hours at 30° C. on Synergy 2 plate reader. The reaction rate was calculated using the 3 to 4 h time frame. Percent inhibition was obtained by comparison of reaction rate with that of a control (i.e. in the absence of test compound). IC50 values were calculated from a series of percent inhibition values determined at a range of inhibitor concentrations using software routines as implemented in the GraphPad Prism software package.

Row | IC50 [1] | IC50 [2] | IC50 [3] | Structure (SMILES)
1 | ≤ 100 nM | > 1000 nM | ≤ 100 nM | O=C(Nc1cc(F)c(Oc2ccnc(-c3cnn(CCO)c3)c2)cc1F)c1cccn(-c2ccc(F)cc2)c1=O [Example 3, N-(2,5-difluoro-4-((2-(1-(2-hydroxyethyl)-1H-pyrazol-4-yl)pyridin-4-yl)oxy)phenyl)-1-(4-fluorophenyl)-2-oxo-1,2-dihydropyridine-3-carboxamide hydrochloride]
2 | ≤ 100 nM | > 1000 nM | ≤ 100 nM | Cn1cc(-c2cc(Oc3cc(F)c(NC(=O)c4cccn(-c5ccc(F)cc5)c4=O)cc3F)ccn2)cn1 [Example 1, N-(2,5-difluoro-4-((2-(1-methyl-1H-pyrazol-4-yl)pyridin-4-yl)oxy)phenyl)-1-(4-fluorophenyl)-2-oxo-1,2-dihydropyridine-3-carboxamide]
3 | – | > 1000 nM | 100 to 1000 nM | CCNc1ccn(-c2ccc(F)cc2)c(=O)c1C(=O)Nc1cc(F)c(Oc2ccnc(-c3cnn(C)c3)c2)cc1F [Example 5, N-(2,5-difluoro-4-((2-(1-methyl-1H-pyrazol-4-yl)pyridin-4-yl)oxy)phenyl)-4-(ethylamino)-1-(4-fluorophenyl)-2-oxo-1,2-dihydropyridine-3-carboxamide]
4 | ≤ 100 nM | > 1000 nM | 100 to 1000 nM | CCOc1ccn(-c2ccc(F)cc2)c(=O)c1C(=O)Nc1cc(F)c(Oc2ccnc(-c3cnn(C)c3)c2)cc1F [Example 2, N-(2,5-difluoro-4-(2-(1-methyl-1H-pyrazol-4-yl)pyridin-4-yloxy)phenyl)-4-ethoxy-1-(4-fluorophenyl)-2-oxo-1,2-dihydropyridine-3-carboxamide]
